Species: Rattus norvegicus
Assay: Open TG-GATES - Regimen: Single
Assay type: toxicity, organism-based, Sprague-Dawley
Design: regimen Single, gender Male, age 6 weeks
Conditions: in vivo, po, route gavage; for TP / gamma-GTP / ALP / AST / BUN / CRE / Ca / Cl / DBIL / GLC / IP / K / LDH / Na / PL / RALB / TBIL / TC / TG: tissue Plasma; for APTT / Bas / Eos / Ht / MCH / MCHC / MCV / Mono / PT / Plat / RBC / Ret / WBC / Fbg: tissue Blood; for KIDNEY_L / KIDNEY_R / KIDNEY_TOTAL: tissue Kidney; for LIVER: tissue Liver
[1] = 200 mg/kg, 3 h, dose level Middle
[2] = 200 mg/kg, 6 h, dose level Middle
[3] = 200 mg/kg, 9 h, dose level Middle
[4] = 200 mg/kg, 24 h, dose level Middle
[5] = 600 mg/kg, 3 h, dose level High
[6] = 600 mg/kg, 6 h, dose level High
[7] = 600 mg/kg, 9 h, dose level High
[8] = 600 mg/kg, 24 h, dose level High

CC(=O)Nc1nnc(S(N)(=O)=O)s1 [ACETAZOLAMIDE]
TP (60 mg/kg, 24 h, dose level Low): 5.5 g/dL | gamma-GTP (60 mg/kg, 24 h, dose level Low): 1.2 IU/L | TERMINAL_BW [1]: 208.6 g | APTT [1]: 21.4 s | Bas [1]: 0% | Eos [1]: 1% | Ht [1]: 42% | MCH [1]: 21 pg | MCHC [1]: 31.4% | MCV [1]: 66.7 fL | Mono [1]: 2.2% | PT [1]: 16.8 s | Plat [1]: 124.3 x10_4/uL | RBC [1]: 629.8 x10_4/ul | Ret [1]: 8.5% | WBC [1]: 67.2 x10_2/uL | KIDNEY_L [1]: 0.9 g | KIDNEY_R [1]: 0.9 g | KIDNEY_TOTAL [1]: 1.8 g | LIVER [1]: 9.2 g | ALP [1]: 1675.4 IU/L | AST [1]: 71.2 IU/L | BUN [1]: 12.2 mg/dL | CRE [1]: 0.2 mg/dL | Ca [1]: 11.1 mg/dL | Cl [1]: 111.2 meq/L | DBIL [1]: 0 mg/dL | GLC [1]: 186.4 mg/dL | IP [1]: 10.2 mg/dL | K [1]: 3.7 meq/L | LDH [1]: 191.6 IU/L | Na [1]: 140.8 meq/L | PL [1]: 143 mg/dL | RALB [1]: 3.4 g/dL | TBIL [1]: 0.012 mg/dL | TC [1]: 80.4 mg/dL | TP [1]: 6 g/dL | gamma-GTP [1]: 1.2 IU/L | TERMINAL_BW [2]: 207.7 g | APTT [2]: 22.7 s | Bas [2]: 0% | Eos [2]: 1% | Fbg [2]: 356 mg/dL | Ht [2]: 42% | MCH [2]: 21.2 pg | MCHC [2]: 31.2% | MCV [2]: 68 fL | Mono [2]: 2.8% | PT [2]: 16.9 s | Plat [2]: 108.6 x10_4/uL | RBC [2]: 617.6 x10_4/ul | Ret [2]: 8.8% | WBC [2]: 85 x10_2/uL | KIDNEY_L [2]: 1 g | KIDNEY_R [2]: 1 g | KIDNEY_TOTAL [2]: 2 g | LIVER [2]: 8.8 g | ALP [2]: 1625.8 IU/L | AST [2]: 71.2 IU/L | BUN [2]: 11.6 mg/dL | CRE [2]: 0.2 mg/dL | Ca [2]: 11.1 mg/dL | Cl [2]: 113.6 meq/L | DBIL [2]: 0 mg/dL | GLC [2]: 186.8 mg/dL | IP [2]: 9.7 mg/dL | K [2]: 4 meq/L | LDH [2]: 180.8 IU/L | Na [2]: 140 meq/L | PL [2]: 135.8 mg/dL | RALB [2]: 3.4 g/dL | TBIL [2]: 0.024 mg/dL | TC [2]: 84.2 mg/dL | TG [2]: 21.4 mg/dL | TP [2]: 6 g/dL | gamma-GTP [2]: 1.6 IU/L | TERMINAL_BW [3]: 200 g | APTT [3]: 22.9 s | Bas [3]: 0% | Eos [3]: 0.8% | Fbg [3]: 349.4 mg/dL | Ht [3]: 43.2% | MCH [3]: 20.8 pg | MCHC [3]: 31% | MCV [3]: 67.3 fL | Mono [3]: 1.8% | PT [3]: 16.3 s | Plat [3]: 127.1 x10_4/uL | RBC [3]: 644 x10_4/ul | Ret [3]: 8.8% | WBC [3]: 68.1 x10_2/uL | KIDNEY_L [3]: 0.9 g | KIDNEY_R [3]: 1 g | KIDNEY_TOTAL [3]: 1.9 g | LIVER [3]: 7.8 g | ALP [3]: 1777.2 IU/L | AST [3]: 61.6 IU/L | BUN [3]: 13.2 mg/dL | CRE [3]: 0.2 mg/dL | Ca [3]: 11 mg/dL | Cl [3]: 114.4 meq/L | DBIL [3]: 0 mg/dL | GLC [3]: 175 mg/dL | IP [3]: 9.7 mg/dL | K [3]: 3.8 meq/L | LDH [3]: 182.6 IU/L | Na [3]: 139 meq/L | PL [3]: 122.4 mg/dL | RALB [3]: 3.5 g/dL | TBIL [3]: 0.026 mg/dL | TC [3]: 72.4 mg/dL | TG [3]: 13.8 mg/dL | TP [3]: 6.1 g/dL | gamma-GTP [3]: 1.4 IU/L | TERMINAL_BW [4]: 205.9 g | APTT [4]: 21.2 s | Bas [4]: 0% | Eos [4]: 1% | Fbg [4]: 349 mg/dL | Ht [4]: 40.8% | MCH [4]: 20.9 pg | MCV [4]: 62.9 fL | Mono [4]: 2% | PT [4]: 16.8 s | Plat [4]: 132.1 x10_4/uL | RBC [4]: 649.2 x10_4/ul | Ret [4]: 8.1% | WBC [4]: 101.2 x10_2/uL | KIDNEY_L [4]: 1 g | KIDNEY_R [4]: 1 g | KIDNEY_TOTAL [4]: 1.9 g | LIVER [4]: 8.5 g | ALP [4]: 1929.2 IU/L | AST [4]: 53.6 IU/L | BUN [4]: 21.6 mg/dL | CRE [4]: 0.2 mg/dL | Ca [4]: 10.8 mg/dL | Cl [4]: 114.4 meq/L | DBIL [4]: 0 mg/dL | GLC [4]: 189.6 mg/dL | IP [4]: 7.7 mg/dL | K [4]: 3.6 meq/L | LDH [4]: 222.4 IU/L | Na [4]: 142.2 meq/L | PL [4]: 136.2 mg/dL | RALB [4]: 3.2 g/dL | TBIL [4]: 0.016 mg/dL | TC [4]: 86.4 mg/dL | TG [4]: 44.6 mg/dL | TP [4]: 5.7 g/dL | gamma-GTP [4]: 1.4 IU/L | TERMINAL_BW [5]: 215.3 g | APTT [5]: 22.2 s | Bas [5]: 0% | Eos [5]: 1.2% | Fbg [5]: 336.8 mg/dL | Ht [5]: 42.8% | MCH [5]: 21.1 pg | MCHC [5]: 31.1% | MCV [5]: 67.9 fL | Mono [5]: 2% | Plat [5]: 114.9 x10_4/uL | RBC [5]: 630.4 x10_4/ul | Ret [5]: 8.1% | WBC [5]: 60.8 x10_2/uL | KIDNEY_L [5]: 0.9 g | KIDNEY_R [5]: 1 g | KIDNEY_TOTAL [5]: 1.9 g | LIVER [5]: 9.6 g | ALP [5]: 1769.8 IU/L | AST [5]: 76 IU/L | BUN [5]: 12.2 mg/dL | CRE [5]: 0.2 mg/dL | Ca [5]: 11.1 mg/dL | Cl [5]: 112 meq/L | DBIL [5]: 0 mg/dL | GLC [5]: 188.6 mg/dL | IP [5]: 10.5 mg/dL | K [5]: 4 meq/L | LDH [5]: 209.8 IU/L | Na [5]: 140.2 meq/L | PL [5]: 140.4 mg/dL | RALB [5]: 3.3 g/dL | TBIL [5]: 0.008 mg/dL | TG [5]: 24.8 mg/dL | TP [5]: 5.9 g/dL | gamma-GTP [5]: 1.2 IU/L | TERMINAL_BW [6]: 204.7 g | APTT [6]: 23.6 s | Bas [6]: 0% | Eos [6]: 1.4% | Fbg [6]: 340.8 mg/dL | Ht [6]: 42.8% | MCH [6]: 21.2 pg | MCHC [6]: 31.1% | MCV [6]: 68 fL | Mono [6]: 2.4% | PT [6]: 16.8 s | Plat [6]: 120.2 x10_4/uL | RBC [6]: 628.2 x10_4/ul | Ret [6]: 8.5% | WBC [6]: 85.2 x10_2/uL | KIDNEY_L [6]: 0.9 g | KIDNEY_R [6]: 1 g | KIDNEY_TOTAL [6]: 1.9 g | LIVER [6]: 8.3 g | ALP [6]: 1569.2 IU/L | AST [6]: 69 IU/L | BUN [6]: 10.6 mg/dL | CRE [6]: 0.2 mg/dL | Ca [6]: 11.1 mg/dL | Cl [6]: 113 meq/L | DBIL [6]: 0 mg/dL | GLC [6]: 185.2 mg/dL | IP [6]: 10.1 mg/dL | K [6]: 3.8 meq/L | LDH [6]: 205.4 IU/L | Na [6]: 138.4 meq/L | PL [6]: 149.8 mg/dL | RALB [6]: 3.4 g/dL | TBIL [6]: 0.016 mg/dL | TC [6]: 90.4 mg/dL | TG [6]: 23 mg/dL | TP [6]: 6 g/dL | gamma-GTP [6]: 1.2 IU/L | TERMINAL_BW [7]: 201.6 g | APTT [7]: 24 s | Bas [7]: 0% | Eos [7]: 0.8% | Fbg [7]: 344.6 mg/dL | Ht [7]: 43% | MCHC [7]: 30.9% | MCV [7]: 66.6 fL | Mono [7]: 2.2% | PT [7]: 16 s | Plat [7]: 123.6 x10_4/uL | RBC [7]: 645.4 x10_4/ul | Ret [7]: 8.8% | WBC [7]: 51.5 x10_2/uL | KIDNEY_L [7]: 0.9 g | KIDNEY_R [7]: 0.9 g | KIDNEY_TOTAL [7]: 1.9 g | LIVER [7]: 7.7 g | ALP [7]: 1753.6 IU/L | AST [7]: 59 IU/L | BUN [7]: 13.4 mg/dL | CRE [7]: 0.2 mg/dL | Ca [7]: 11 mg/dL | Cl [7]: 114.2 meq/L | DBIL [7]: 0 mg/dL | GLC [7]: 172.6 mg/dL | IP [7]: 10 mg/dL | K [7]: 3.8 meq/L | LDH [7]: 176.4 IU/L | Na [7]: 138.6 meq/L | PL [7]: 127.8 mg/dL | RALB [7]: 3.4 g/dL | TBIL [7]: 0.02 mg/dL | TC [7]: 85 mg/dL | TG [7]: 11.4 mg/dL | TP [7]: 6.1 g/dL | gamma-GTP [7]: 1.2 IU/L | TERMINAL_BW [8]: 199.5 g | APTT [8]: 22.2 s | Bas [8]: 0% | Eos [8]: 1% | Fbg [8]: 359.2 mg/dL | Ht [8]: 41.1% | MCH [8]: 20.3 pg | MCHC [8]: 32.8% | MCV [8]: 61.9 fL | Mono [8]: 2.2% | PT [8]: 16.9 s | Plat [8]: 112.5 x10_4/uL | RBC [8]: 663.8 x10_4/ul | Ret [8]: 8% | WBC [8]: 74.5 x10_2/uL | KIDNEY_L [8]: 0.9 g | KIDNEY_R [8]: 0.9 g | KIDNEY_TOTAL [8]: 1.9 g | LIVER [8]: 7.9 g | ALP [8]: 1549.4 IU/L | AST [8]: 49.6 IU/L | BUN [8]: 18.8 mg/dL | CRE [8]: 0.2 mg/dL | Ca [8]: 10.7 mg/dL | Cl [8]: 116.8 meq/L | DBIL [8]: 0 mg/dL | IP [8]: 8.2 mg/dL | K [8]: 3.8 meq/L | LDH [8]: 205.2 IU/L | Na [8]: 140.6 meq/L | PL [8]: 137.4 mg/dL | RALB [8]: 3.5 g/dL | TBIL [8]: 0.016 mg/dL | TC [8]: 89.6 mg/dL | TG [8]: 26.8 mg/dL | TP [8]: 6 g/dL | gamma-GTP [8]: 1.2 IU/L
